Reference: patent publication US9434704B2, “Compositions and methods for the treatment of neurological degenerative disorders” (CELLIX BIO PRIVATE LIMITED, priority 2012, dated 2016)
“And” between values parts separate entries of the source, which are not always exact repeats. Equal entries are not always repeated.

How the values were obtained:
[1] = in vivo; conditions: female, Wistar, rat, ip, 8 mg/kg
[2] = rat, in vivo, 8 mg/kg

Cmax [1]: 10200 ng/g and 3380 ng/mL | half-life ([1]; t1/2 in brain): 13.2 h | half-life ([1]; t1/2 in cervical SC): 13.2 h | half-life ([1]; t1/2 in plasma): 11 h | half-life ([1]; t1/2 in thoracic SC): 11 h | time to reach spinal cord (SC) ([2]; female, Wistar): ≤ 15 min | time of Cmax in SC [2]: 1.5 h | absorption after I.P. administration ([2]; ip): readily absorbed | time of Cmax in brain ([2]; ip): 0.7 h | time of Cmax in plasma ([2]; ip): 0.5 h
Compound: CC(OC(=O)CCCC[C@]1(C)CCSS1)OC(=O)Nc1nc2ccc(OC(F)(F)F)cc2s1 (stereo partly shown) [Formula II (2-1)]
